Assay results from US20080234262A1 (Wyeth, priority 2007, published 2008).

Columns and labels:
[1] = biological target: PI3K (Homo sapiens, UniProt P42336); assay: Fluorescence polarization assay for PI3K; type: biochemical; conditions: PI3Kα; read-out: PI3Kα IC50;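 also: PI3K kinase reaction on PIP2 with ATP, 30-60 min, product sensed by GST-GRP with red probe in fluorescence polarization (mP), controls without enzyme and at zero time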
[2] = system: prostate line LNCap; assay: In vitro cell culture growth assay (MTS), LNCap; type: cell-based, human; conditions: LNCap cells, three days after drug treatment;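 also: viable cell density read by absorbance at 490 nm, growth expressed as percent of vehicle-treated cells on the same plate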
[3] = system: breast line MDA468; assay: In vitro cell culture growth assay (MTS), MDA468; type: cell-based, human; conditions: MDA468 cells, three days after drug treatment
Outline: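 Growth measured as percent of same-plate vehicle control by MTS metabolic dye conversion (A490). Breast MDA468 and prostate LNCap cells, plated a day ahead, were exposed to compounds for 3 days.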

PI3K, sequence (P42336 whole entry): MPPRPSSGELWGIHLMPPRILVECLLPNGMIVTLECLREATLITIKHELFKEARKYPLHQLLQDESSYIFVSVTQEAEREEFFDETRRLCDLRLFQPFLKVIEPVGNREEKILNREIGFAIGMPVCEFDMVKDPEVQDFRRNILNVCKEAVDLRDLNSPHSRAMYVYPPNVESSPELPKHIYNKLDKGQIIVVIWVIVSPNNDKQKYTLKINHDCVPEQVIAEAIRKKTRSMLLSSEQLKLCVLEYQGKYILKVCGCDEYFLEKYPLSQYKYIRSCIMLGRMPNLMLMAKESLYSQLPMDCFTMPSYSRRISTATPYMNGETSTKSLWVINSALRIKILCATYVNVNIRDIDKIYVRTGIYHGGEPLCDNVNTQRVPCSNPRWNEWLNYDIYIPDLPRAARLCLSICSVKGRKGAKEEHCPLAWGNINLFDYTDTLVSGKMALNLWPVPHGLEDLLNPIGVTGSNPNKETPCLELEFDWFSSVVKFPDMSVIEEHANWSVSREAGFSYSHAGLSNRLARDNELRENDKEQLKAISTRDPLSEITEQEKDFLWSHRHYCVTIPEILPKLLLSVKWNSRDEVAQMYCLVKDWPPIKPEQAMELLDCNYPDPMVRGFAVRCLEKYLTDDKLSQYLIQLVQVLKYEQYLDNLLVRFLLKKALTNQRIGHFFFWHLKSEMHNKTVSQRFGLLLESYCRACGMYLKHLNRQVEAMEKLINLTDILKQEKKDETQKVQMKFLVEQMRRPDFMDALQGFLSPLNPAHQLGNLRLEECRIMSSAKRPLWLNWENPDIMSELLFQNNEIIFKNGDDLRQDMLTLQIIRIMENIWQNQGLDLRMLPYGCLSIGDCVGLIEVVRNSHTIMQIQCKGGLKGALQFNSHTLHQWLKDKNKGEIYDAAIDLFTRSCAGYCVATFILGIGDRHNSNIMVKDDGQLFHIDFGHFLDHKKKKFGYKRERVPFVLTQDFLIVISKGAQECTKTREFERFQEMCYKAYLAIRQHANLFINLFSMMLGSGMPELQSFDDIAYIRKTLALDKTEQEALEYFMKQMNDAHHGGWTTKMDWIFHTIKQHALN
PI3K, sequence (P27986 whole entry partner): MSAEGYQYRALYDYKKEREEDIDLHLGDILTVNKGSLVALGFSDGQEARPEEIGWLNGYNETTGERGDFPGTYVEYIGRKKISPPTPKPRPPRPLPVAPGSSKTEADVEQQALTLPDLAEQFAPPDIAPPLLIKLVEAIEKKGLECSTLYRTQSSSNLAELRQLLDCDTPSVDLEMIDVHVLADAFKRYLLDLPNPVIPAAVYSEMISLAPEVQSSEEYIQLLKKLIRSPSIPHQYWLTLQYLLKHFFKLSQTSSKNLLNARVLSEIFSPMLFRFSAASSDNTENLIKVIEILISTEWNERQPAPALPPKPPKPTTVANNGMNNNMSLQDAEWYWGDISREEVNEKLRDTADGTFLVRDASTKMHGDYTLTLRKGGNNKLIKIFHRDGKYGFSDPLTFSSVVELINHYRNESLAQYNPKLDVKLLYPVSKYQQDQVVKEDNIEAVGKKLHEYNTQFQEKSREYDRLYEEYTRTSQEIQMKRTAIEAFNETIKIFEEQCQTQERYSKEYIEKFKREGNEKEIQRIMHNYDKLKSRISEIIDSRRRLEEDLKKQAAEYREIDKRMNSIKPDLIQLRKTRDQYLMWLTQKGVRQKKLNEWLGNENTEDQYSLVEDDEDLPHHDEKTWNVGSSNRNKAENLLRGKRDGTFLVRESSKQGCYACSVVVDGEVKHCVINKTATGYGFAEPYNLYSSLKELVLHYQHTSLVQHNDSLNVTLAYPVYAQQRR

Compound | IC50 [1] [nM] | IC50 ([2]; Homo sapiens, LNCaP, 72 h) [nM] | IC50 ([3]; Homo sapiens, 72 h) [nM] | IC50 [2] [nM] | IC50 [3] [nM]
c1ccc(-n2ncc3c(N4CCOCC4)nc(-c4ccc5[nH]ncc5c4)nc32)cc1 [Example 432, 6-(1H-indazol-5-yl)-4-morpholin-4-yl-1-phenyl-1H-pyrazolo[3,4-d]pyrimidine] | 440 | 20000 | 60000 |  | 
O=C(NCCF)Nc1ccc(-c2nc(N3CCOCC3)c3cnn(CC(F)(F)F)c3n2)cc1 [Compound 790, 1-(2-fluoroethyl)-3-{4-[4-morpholin-4-yl-1-(2,2,2-trifluoroethyl)-1H-pyrazolo[3,4-d]pyrimidin-6-yl]phenyl}urea] | 314 | 60 | 150 |  | 
CC1CN(c2nc(-c3cccc(O)c3)nc3c2cnn3-c2ccccc2)CCO1 (stereo not drawn) [Compound 943, 3-[4-(2-methylmorpholin-4-yl)-1-phenyl-1H-pyrazolo[3,4-d]pyrimidin-6-yl]phenol] | 276 | 1900 | 7500 |  | 
CNC(=O)Nc1ccc(-c2nc(N3CCOCC3)c3cnn(C4CCN(C(=O)c5ccccc5)CC4)c3n2)cc1 [Compound 580, 1-{4-[1-(1-benzoylpiperidin-4-yl)-4-morpholin-4-yl-1H-pyrazolo[3,4-d]pyrimidin-6-yl]phenyl}-3-methylurea] | 63 | < 27 | 27 |  | 
CCSC(=O)N1CCC(n2ncc3c(N4CCOCC4)nc(-c4ccc(NC(=O)NC)cc4)nc32)CC1 [Compound 762, S-ethyl 4-(6-{4-[(methylcarbamoyl)amino]phenyl}-4-morpholin-4-yl-1H-pyrazolo[3,4-d]pyrimidin-1-yl)piperidine-1-carbothioate] | 87 | 50 | 170 |  | 
CNC(=O)Nc1ccc(-c2nc(N3CCOCC3)c3cnn(C4CCN(Cc5cncc(Br)c5)CC4)c3n2)cc1 [Example 393, 1-[4-(1-{1-[(5-bromopyridin-3-yl)methyl]piperidin-4-yl}-4-morpholin-4-yl-1H-pyrazolo[3,4-d]pyrimidin-6-yl)phenyl]-3-methylurea] | 72 | 95 | 600 |  | 
CCOC(=O)N1CCC(n2ncc3c(N4CCOCC4)nc(-c4ccc(NC(=O)Nc5cccnc5)cc4)nc32)CC1 [Compound 816, ethyl 4-(4-morpholin-4-yl-6-{4-[(pyridin-3-ylcarbamoyl)amino]phenyl}-1H-pyrazolo[3,4-d]pyrimidin-1-yl)piperidine-1-carboxylate] | 60 | < 27 | < 27 |  | 
Oc1cccc(-c2nc(N3CCOCC3)c3cnn(C4CCNCC4)c3n2)c1 [Compound 9] | 36 | 370 | 2200 |  | 
CNC(=O)Nc1ccc(-c2nc(N3CCOCC3)c3cnn(C4CCN(Cc5cccnc5)CC4)c3n2)cc1Cl [Compound 730, 1-(2-chloro-4-{4-morpholin-4-yl-1-[1-(pyridin-3-ylmethyl)piperidin-4-yl]-1H-pyrazolo[3,4-d]pyrimidin-6-yl}phenyl)-3-methylurea] | 364 | 420 | 1800 |  | 
CNC(=O)Nc1ccc(-c2nc(N3CCOCC3)c3cnn(C4CCN(C(=O)c5ccc(F)nc5)CC4)c3n2)cc1 [Compound 665, 1-[4-(1-{1-[(6-fluoropyridin-3-yl)carbonyl]piperidin-4-yl}-4-morpholin-4-yl-1H-pyrazolo[3,4-d]pyrimidin-6-yl)phenyl]-3-methylurea] | 100 |  |  | 250 | 270
C1=C(c2nc(N3CCOCC3)c3cnn(-c4ccccc4)c3n2)CCOC1 [Compound 98] | 754 | 60000 | 33000 |  | 
CNC(=O)Nc1ccc(-c2nc(N3CCOCC3)c3cnn(C4CCN(C(=O)COC)CC4)c3n2)cc1 [Example 474, 1-(4-{1-[1-(methoxyacetyl)piperidin-4-yl]-4-morpholin-4-yl-1H-pyrazolo[3,4-d]pyrimidin-6-yl}phenyl)-3-methylurea] | 287 | 1010 | 1400 |  | 
CNC(=O)Nc1ccc(-c2nc(N3CCOCC3)c3cnn(C4CCN(CC(=O)O)CC4)c3n2)cc1 [Compound 798, [4-(6-{4-[(methylcarbamoyl)amino]phenyl}-4-morpholin-4-yl-1H-pyrazolo[3,4-d]pyrimidin-1-yl)piperidin-1-yl]acetic acid] | 438 | > 60000 | > 60000 |  | 
Cc1cc(NC(=O)Nc2ccc(-c3nc(N4CCOCC4)c4cnn(C5CCN(C(=O)OC(C)(C)C)CC5)c4n3)cc2)on1 [Compound 883, tert-butyl 4-[6-(4-{[(3-methylisoxazol-5-yl)carbamoyl]amino}phenyl)-4-morpholin-4-yl-1H-pyrazolo[3,4-d]pyrimidin-1-yl]piperidine-1-carboxylate] | 160 | 270 | 1300 |  | 
CCSC(=O)N1CCC(n2ncc3c(N4CCOCC4)nc(-c4ccc(NC(=O)OC)cc4)nc32)CC1 [Compound 807, S-ethyl 4-(6-{4-[(methoxycarbonyl)amino]phenyl}-4-morpholin-4-yl-1H-pyrazolo[3,4-d]pyrimidin-1-yl)piperidine-1-carbothioate] | 4450 | 1400 | 8000 |  | 
CN(C)CC(=O)Nc1ccc(-c2nc(N3CCOCC3)c3cn[nH]c3n2)cc1 [Compound 281, N~2~,N~2~-dimethyl-N-[4-(4-morpholin-4-yl-1H-pyrazolo[3,4-d]pyrimidin-6-yl)phenyl]glycinamide] | 2270 | 7000 | 18000 |  | 
CNC(=O)Nc1ccc(-c2nc(N3CCOCC3)c3cnn(C4CCN(C(=O)OCC(C)C)CC4)c3n2)cc1 [Compound 754, isobutyl 4-(6-{4-[(methylcarbamoyl)amino]phenyl}-4-morpholin-4-yl-1H-pyrazolo[3,4-d]pyrimidin-1-yl)piperidine-1-carboxylate] | 72 | 130 | 270 |  | 
O=C(Nc1cccnc1)Nc1ccc(-c2nc(N3CCOCC3)c3cnn(C4CCN(Cc5cccnc5)CC4)c3n2)cc1F [Compound 618, 1-(2-fluoro-4-{4-morpholin-4-yl-1-[1-(pyridin-3-ylmethyl)piperidin-4-yl]-1H-pyrazolo[3,4-d]pyrimidin-6-yl}phenyl)-3-pyridin-3-ylurea] | 54 | 40 | 150 |  | 
CNC(=O)Nc1ccc(-c2nc(N3CCOCC3)c3cnn(C4CCN(C(=O)C(C)C)CC4)c3n2)cc1 [Compound 719, 1-{4-[1-(1-isobutyrylpiperidin-4-yl)-4-morpholin-4-yl-1H-pyrazolo[3,4-d]pyrimidin-6-yl]phenyl}-3-methylurea] | 148 |  |  | 150 | 250
c1cc2cc(-c3nc(N4CCOCC4)c4cnn(C5CCCCO5)c4n3)ccc2[nH]1 (stereo not drawn) [Compound 928, 6-(1H-indol-5-yl)-4-morpholin-4-yl-1-(tetrahydro-2H-pyran-2-yl)-1H-pyrazolo[3,4-d]pyrimidine] | 2420 |  |  | 4200 | 1000
O=C(c1cccnc1Cl)N1CCC(n2ncc3c(N4CCOCC4)nc(-c4ccc5[nH]ccc5c4)nc32)CC1 [Example 195, 1-{1-[(2-chloropyridin-3-yl)carbonyl]piperidin-4-yl}-6-(1H-indol-5-yl)-4-morpholin-4-yl-1H-pyrazolo[3,4-d]pyrimidine] | 1690 | 450 | 1000 |  | 
Nc1ccc(-c2nc(N3CCOCC3)c3cnn(C4CCN(C(=O)c5cccnc5)CC4)c3n2)cn1 [Example 214, 5-{4-morpholin-4-yl-1-[1-(pyridin-3-ylcarbonyl)piperidin-4-yl]-1H-pyrazolo[3,4-d]pyrimidin-6-yl}pyridin-2-amine] | 109 | 570 | 1500 |  | 
O=C(Nc1ccc(-c2nc(N3CCOCC3)c3cnn(C4CCN(Cc5cccnc5)CC4)c3n2)cc1)Nc1cccs1 [Compound 648, 1-(4-{4-morpholin-4-yl-1-[1-(pyridin-3-ylmethyl)piperidin-4-yl]-1H-pyrazolo[3,4-d]pyrimidin-6-yl}phenyl)-3-(2-thienyl)urea] | 8 |  |  | < 27 | 60
C=CCNC(=O)Nc1ccc(-c2nc(N3CCOCC3)c3cnn(C4CCN(Cc5ccccc5)CC4)c3n2)cc1 [Compound 509, 1-allyl-3-{4-[1-(1-benzylpiperidin-4-yl)-4-morpholin-4-yl-1H-pyrazolo[3,4-d]pyrimidin-6-yl]phenyl}urea] | 268 | 250 | 1800 |  | 
COc1cccc(C(=O)Nc2ccc(-c3nc(N4CCOCC4)c4cnn(C5CCCCO5)c4n3)cc2)c1 (stereo not drawn) [Compound 273, 3-methoxy-N-{4-[4-morpholin-4-yl-1-(tetrahydro-2H-pyran-2-yl)-1H-pyrazolo[3,4-d]pyrimidin-6-yl]phenyl}benzamide] | 8320 | 1950 | 60000 |  | 
O=C(NCC(F)(F)F)Nc1ccc(-c2nc(N3CCOCC3)c3cnn(C4CCN(Cc5ccccc5)CC4)c3n2)cc1 [Example 289, 1-{4-[1-(1-benzylpiperidin-4-yl)-4-morpholin-4-yl-1H-pyrazolo[3,4-d]pyrimidin-6-yl]phenyl}-3-(2,2,2-trifluoroethyl)urea] | 590 | 320 | 1300 |  | 
CC(C)C(=O)N1CCC(n2ncc3c(N4CCOCC4)nc(-c4ccc(NC(=O)NC5CC5)cc4)nc32)CC1 [Compound 824, 1-cyclopropyl-3-{4-[1-(1-isobutyrylpiperidin-4-yl)-4-morpholin-4-yl-1H-pyrazolo[3,4-d]pyrimidin-6-yl]phenyl}urea] | 2030 | 110 | 700 |  | 
COc1cncc(-c2nc(N3CCOCC3)c3cnn(C)c3n2)c1 [Compound 11] | 279 | 4700 | 5000 |  | 
O=C(Nc1cccnc1)N1CCC(n2ncc3c(N4CCOCC4)nc(-c4ccc5[nH]ccc5c4)nc32)CC1 [Compound 132] | 311 | 300 | 1200 |  | 
